Test results published in EP4806898A1, “HETEROARYL DERIVATIVE COMPOUND AND USE THEREOF” (Voronoi Inc., priority 2023, dated 2025).

What follows are molecules tested against T1, recombinant USP1 protein (Homo sapiens, UniProt O94782, DEL125-138/DEL229-408/DEL608-737) (assay: Binding affinity to recombinant USP1 protein by differential scanning fluorimetry). Conditions: compound 100 µM; 0.03 mg/mL USP1 (Δ1-66, Δ125-138, Δ229-408, Δ608-737); Tm with compound minus Tm with DMSO; read-out: ΔTm (°C).
T1 sequence (O94782 with tags, fused parts or gaps DEL125-138/DEL229-408/DEL608-737): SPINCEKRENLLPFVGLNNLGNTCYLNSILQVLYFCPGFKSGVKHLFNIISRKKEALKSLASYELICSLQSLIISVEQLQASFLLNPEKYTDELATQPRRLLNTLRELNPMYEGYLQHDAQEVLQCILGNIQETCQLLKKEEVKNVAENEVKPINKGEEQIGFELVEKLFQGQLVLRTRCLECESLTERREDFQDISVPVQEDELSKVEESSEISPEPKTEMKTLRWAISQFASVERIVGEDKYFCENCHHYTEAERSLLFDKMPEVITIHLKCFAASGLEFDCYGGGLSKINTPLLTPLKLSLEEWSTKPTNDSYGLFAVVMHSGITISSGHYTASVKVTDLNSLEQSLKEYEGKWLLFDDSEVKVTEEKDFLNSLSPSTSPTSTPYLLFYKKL
Experimental: <Experimental Example 1> Confirmation and evaluation of the binding affinity to recombinant USP1 protein
To evaluate the binding affinity of the compounds of the present invention to the USP1 protein, the following experiment was performed using differential scanning fluorimetry.
Recombinant 0.03 mg/mL USP1 (Δ1-66, Δ125-138, Δ229-408, Δ608-737) protein, dye reagent, and buffer solution (50 mM Tris-HCl pH 8.0, 150 mM NaCl, 2% glycerol, 1 mM DTT) were mixed and 19 µL of the mixture was dispensed into a well plate (MicroAmp Fast 96-Well Reaction plate, 0.1 mL). Each compound was injected at a final concentration of 100 µM in an amount of 1 µL, and the plate containing a total of 20 µL was sealed with MicroAmp Optical Adhesive Film. The melting temperature (Tm) of the protein in each well was measured using a real-time PCR (RT-PCR) device. The difference between the Tm of the sample containing the compound and the Tm containing DMSO is referred to as delta Tm (ΔTm), where a larger ΔTm value indicates stronger binding affinity. The degree of temperature at which the protein is modified in the presence of the compound compared to DMSO was calculated according to Equation 1 below: [formula]

ΔTm at 100 µM	Compound
> 5 °C	COc1ncnc(C2CC2)c1-c1ncc2cc(C(=O)NCCS(C)(=O)=O)n(Cc3ccc(-c4nc(C(F)(F)F)cn4C(C)C)cc3)c2n1 [Example 8, 2-(4-cyclopropyl-6-methoxypyrimidin-5-yl)-7-(4-(1-isopropyl-4-(trifluoromethyl)-1H-imidazol-2-yl)benzyl)-N-(2-(methylsulfonyl)ethyl)-7H-pyrrolo[2,3-d]pyrimidine-6-carboxamide]
> 5 °C	COc1ncnc(C2CC2)c1-c1ncc2cc(C(=O)N3CCS(=O)(=O)CC3)n(Cc3ccc(-c4nc(C(F)(F)F)cn4C(C)C)cc3)c2n1 [Example 27, (2-(4-cyclopropyl-6-methoxypyrimid in-5-yl)-7-(4-(1-isopropyl-4-(trifluoromethyl)-1H-imidazol-2-yl)benzyl)-7H-pyrrolo[2,3-d]pyrimidin-6-yl) (1,1-dioxidothiomor pholino)methanone]
< 5 °C	CNC(=O)c1cc2cnc(-c3c(OC)ncnc3C3CC3)nc2n1Cc1ccc(-n2ccnn2)cc1 [Example 44, 7-(4-(1H-1,2,3-triazol-1-yl)benzyl)-2-(4-cyclopropyl-6-methoxypyrimidin-5-yl)-N-methyl-7H-pyrrolo[2,3-d]pyrimidine-6-carboxamide]
> 5 °C	COc1ncnc(C2CC2)c1-c1ncc2cc(C(=O)N3CCNCC3)n(Cc3ccc(-c4nc(C(F)(F)F)cn4C(C)C)cc3)c2n1 [Example 54, (2-(4-cyclopropyl-6-methoxypyrimid in-5-yl)-7-(4-(1-isopropyl-4-(trifluoromethyl)-1H-imidazol-2-yl)benzyl)-7H-pyrrolo[2,3-d]pyrimidin-6-yl) (piperazin-1-yl)methanone]
< 5 °C	CNC(=O)c1cc2cnc(-c3c(C4CC4)nc[nH]c3=O)nc2n1Cc1ccc(-c2nc(C(F)(F)F)cn2C(C)C)cc1 [Example 59, 2-(4-cyclopropyl-6-oxo-1,6-dihydropyrimidin-5-yl)-7-(4-(1-isopropyl-4-(trifluoromethyl)-1H-imidazol-2-yl)benzyl)-N-methyl-7H-pyrrolo[2,3-d]pyrimidine-6-carboxamide]
< 5 °C	CCn1cnc(C2CC2)c(-c2ncc3cc(C(=O)NC)n(Cc4ccc(-c5nc(C(F)(F)F)cn5C(C)C)cc4)c3n2)c1=O [Example 62, 2-(4-cyclopropyl-1-ethyl-6-oxo-1,6-dihydropyrimidin-5-yl)-7-(4-(1-isopropyl-4-(trifluoromethyl)-1H-imidazol-2-yl)benzyl)-N-methyl-7H-pyrrolo[2,3-d]pyrimidine-6-carboxamide]
> 5 °C	COc1ncnc(C2CC2)c1-c1ncc2cc(C(=O)N3CC(F)(C#N)C3)n(Cc3ccc(-c4nc(C(F)(F)F)cn4C(C)C)cc3)c2n1 [Example 72, 1-(2-(4-cyclopropyl-6-methoxypyrimidin-5-yl)-7-(4-(1-isopropyl-4-(trifluoromethyl)-1H-imidazol-2-yl)benzyl)-7H-pyrrolo[2,3-d]pyrimidine-6-carbonyl)-3-fluoroazetidine-3-carbonitrile]
> 5 °C	COc1ncnc(C2CC2)c1-c1ncc2cc(C(=O)NC3CCN(S(C)(=O)=O)CC3)n(Cc3ccc(-c4nc(C(F)(F)F)cn4C(C)C)cc3)c2n1 [Example 74, 2-(4-cyclopropyl-6-methoxypyrimidin-5-yl)-7-(4-(1-isopropyl-4-(trifluoromethyl)-1H-imidazol-2-yl)benzyl)-N-(1-(methylsulfonyl)piperidin-4-yl)-7H-pyrrolo[2,3-d]pyrimidine-6-carboxamide]
> 5 °C	COc1ncnc(C2CC2)c1-c1ncc2cc(C(=O)N(C)C3CC3)n(Cc3ccc(-c4nc(C(F)(F)F)cn4C(C)C)cc3)c2n1 [Example 76, N-cyclopropyl-2-(4-cyclopropyl-6-methoxypyrimidin-5-yl)-7-(4-(1-isopropyl-4-(trifluoromethyl)-1H-imidazol-2-yl)benzyl)-N-methyl-7H-pyrrolo[2,3-d]pyrimidine-6-carboxamide]
> 5 °C	COc1ncnc(C2CC2)c1-c1ncc2cc(C(=O)Nc3ccc(CN(C)C)cc3)n(Cc3ccc(-c4nc(C(F)(F)F)cn4C(C)C)cc3)c2n1 [Example 77, 2-(4-cyclopropyl-6-methoxypyrimidin-5-yl)-N-(4-((dimethylamino)methyl)phenyl)-7-(4-(1-isopropyl-4-(trifluoromethyl)-1H-imidazol-2-yl)benzyl)-7H-pyrrolo[2,3-d]pyrimidine-6-carboxamide]
> 5 °C	COc1ncnc(C2CC2)c1-c1ncc2cc(C(=O)N[C@H](C)CO)n(Cc3ccc(-c4nc(C(F)(F)F)cn4C(C)C)cc3)c2n1 [Example 81, (R) -2-(4-cyclopropyl-6-methoxypyrimidin-5-yl)-N-(1-hydroxypropan-2-yl)-7-(4-(1-isopropyl-4-(trifluoromethyl)-1H-imidazol-2-yl)benzyl)-7H-pyrrolo[2,3-d]pyrimidine-6-carboxamide]
> 5 °C	COc1ncnc(C2CC2)c1-c1ncc2cc(C(=O)N[C@@H](C)CCO)n(Cc3ccc(-c4nc(C(F)(F)F)cn4C(C)C)cc3)c2n1 [Example 91, (S)-2-(4-cyclopropyl-6-methoxypyrimidin-5-yl)-N-(4-hydroxybutan-2-yl)-7-(4-(1-isopropyl-4-(trifluoromethyl)-1H-imidazol-2-yl)benzyl)-7H-pyrrolo[2,3-d]pyrimidine-6-carboxamide]
> 5 °C	COc1ncnc(C2CC2)c1-c1ncc2cc(C(=O)NC3CCS(=O)(=O)CC3)n(Cc3ccc(-c4nc(C(F)(F)F)cn4C(C)C)cc3)c2n1 [Example 93, 2-(4-cyclopropyl-6-methoxypyrimidin-5-yl)-N-(1,1-dioxidotetrahydro-2H-thiopyran-4-yl)-7-(4-(1-isopropyl-4-(trifluoromethyl)-1H-imidazol-2-yl)benzyl)-7H-pyrrolo[2,3-d]pyrimidine-6-carboxamide]
> 5 °C	COc1ncnc(C2CC2)c1-c1ncc2cc(C(=O)N3CC(C(F)F)C3)n(Cc3ccc(-c4nc(C(F)(F)F)cn4C(C)C)cc3)c2n1 [Example 96, (2-(4-cyclopropyl-6-methoxypyrimid in-5-yl)-7-(4-(1-isopropyl-4-(trifluoromethyl)-1H-imidazol-2-yl)benzyl)-7H-pyrrolo[2,3-d]pyrimidin-6-yl) (3-(difluoromethyl)azetidin-1-yl)methanone]
> 5 °C	COc1ncnc(C2CC2)c1-c1ncc2cc(C(=O)NCCN3CCNCC3)n(Cc3ccc(-c4nc(C(F)(F)F)cn4C(C)C)cc3)c2n1 [Example 98, 2-(4-cyclopropyl-6-methoxypyrimidin-5-yl)-7-(4-(1-isopropyl-4-(trifluoromethyl)-1H-imidazol-2-yl)benzyl) -N-(2-(piperazin-1-yl)ethyl)-7H-pyrrolo[2,3-d]pyrimidine-6-carboxamide]
> 5 °C	COc1ncnc(C2CC2)c1-c1ncc2cc(C(=O)N(C)C3CNC3)n(Cc3ccc(-c4nc(C(F)(F)F)cn4C(C)C)cc3)c2n1 [Example 103, N-(azetidin-3-yl)-2-(4-cyclopropyl-6-methoxypyrimidin-5-yl)-7-(4-(1-isopropyl-4-(trifluoromethyl) -1H-imidazol-2-yl)benzyl)-N-methyl-7H-pyrrolo[2,3-d]pyrimidine-6-carboxamide]
> 5 °C	COc1ncnc(C2CC2)c1-c1ncc2cc(C(=O)N3CCCC3(C)C)n(Cc3ccc(-c4nc(C(F)(F)F)cn4C(C)C)cc3)c2n1 [Example 107, (2-(4-cyclopropyl-6-methoxypyrimid in-5-yl)-7-(4-(1-isopropyl-4-(trifluoromethyl)-1H-imidazol-2-yl)benzyl)-7H-pyrrolo[2,3-d]pyrimidin-6-yl)(2,2-dimethylpyrrolidin-1-yl)methanone]

Compound	ΔTm at 100 µM
COc1ncnc(C2CC2)c1-c1ncc2cc(C(=O)N3CC4CCC(C3)N4)n(Cc3ccc(-c4nc(C(F)(F)F)cn4C(C)C)cc3)c2n1 [Example 16, (3,8-diazabicyclo[3 .2.1]octan-3-yl)(2-(4-cyclopropyl-6-methoxypyrimidin-5-yl)-7-(4-(1-isopropyl-4-(trifluoromethyl)-1H-imidazol-2-yl)benzyl)-7H-pyrrolo[2,3-d]pyrimidin-6-yl)methanone]	> 5 °C
COc1ncnc(C2CC2)c1-c1ncc2cc(C(=O)N3C[C@H]4CC[C@@H](C3)N4C3CC3)n(Cc3ccc(-c4nc(C(F)(F)F)cn4C(C)C)cc3)c2n1 [Example 46, (2-(4-cyclopropyl-6-methoxypyrimid in-5-yl)-7-(4-(1-isopropyl-4-(trifluoromethyl)-1H-imidazol-2-yl)benzyl)-7H-pyrrolo[2,3-d]pyrimidin-6-yl)((1R,5S)-8-cyclopropyl-3,8-diazabicyclo[3 .2.1]octan-3-yl)methanone]	> 5 °C
